Assay results: ChEMBL document CHEMBL1155404, “Synthesis, chiral resolution, and determination of novel furan lignan derivatives with potent anti-tumor activity” (Bioorg Med Chem Lett, 2010)

Assays:
[1] = test system: HeLa; assay: Antitumor activity against human HeLa cells by MTT assay; type: functional, cell-based
[2] = Antitumor activity against human QGY7701 cells by MTT assay; type: functional, cell-based

## O=c1[nH]cc(F)c(=O)[nH]1 [FLUOROURACIL]
[1]
  IC50: 64.2 µM
[2]
  IC50: 67.2 µM
